Tested on: shaved dorsal portion of each guinea pig
Test: Suppression of UVB-induced pigmentation, serum applied in advance then device
Assay type: in vivo
Details: serum 80 μL (20 μL/cm^2) applied, then 150 μm array device; from the 4th day of device application onward
Description: A serum containing 4-(4-hydroxyphenyl)-2-butanol as an active ingredient solution was applied at 80 μL (20 μL/cm^2) to the shaved dorsal portion of each guinea pig, and then, a device having an array provided with microprotrusions was prepared for the purpose of stretching the skin by the microprotrusions of the array. The array was made of polylactic acid as a material and was of 150 μm as the length of the protrusions, 841 protrusions/cm^2 as the density of the protrusions, and 1 cm^2 as the area, and for a device, the array was fixed onto a covering member (holding member) prepared by stacking a rubber-based pressure-sensitive adhesive layer onto a support (3 cm×5 cm) made of nonwoven fabric.

CC(O)CCc1ccc(O)cc1 (stereo not shown) [4-(4-hydroxyphenyl)-2-butanol]
effect of suppressing pigmentation attributed to UVB irradiation: effect of suppressing pigmentation attributed to UVB irradiation was observed
